# Laboratory results as given in patent US20180369203A1, “METHODS OF TREATING CANCER BY ADMINISTERING A MEK INHIBITOR IN COMBINATION WITH A PROTEASOME INHIBITOR” (The Jackson Laboratory, priority 2015, published 2018).
# How the values were obtained:
# [1] = tested on: WM115 cells; test: Lys48 ubiquitin immunostaining of aggregates in melanoma cells; type: cell-based, human; settings: 20 nM AZD6244, 100 nM Bortezomib, or both, 24 hr
# Procedure: (§1) FIGS. 5A-Y show MEK and proteasome inhibition provoke protein aggregation and amyloidogenesis. (A-B) WM115 cells treated with 20 nM AZD6244, 100 nM Bortezomib, or both for 24 hr were stained with Lys48-specific ubiquitin antibodies. Arrowheads mark ubiquitin-positive aggregates. Scale bar: 10 μm. Amounts of aggregates per cell were quantitated using ImageJ (median, n≥100, ANOVA). (C-F) Following transfection with polyQ79 plasmids alone or with both polyQ79 and HSF1^S326D plasmids for one day, HEK293T cells were treated with inhibitors as described in (A-B). Cells were either analyzed for aggregate size or stained with 10 μM ThT. (G) Treated tumor cell lines were stained with 10 μM ThT. Geometric means were used to calculate fold changes in ThT fluorescence intensity and the log 2(FC) values were presented as a heat map. (H) HEK293T cells were transfected with LacZ or polyQ79 plasmid. Following treatments, AOs were quantitated by ELISA using A11 antibodies (mean±SD, n=3, ANOVA). (I) Intrinsic AOs were detected in human tumor cell lines (mean±SD, n=3, ANOVA). […] Amyloids were quantitated by ELISA (mean±SD, n=3, Student's t-test). […] AF formation was monitored by ThT binding (mean±SD, n=3, ANOVA). […] Amyloids were quantitated (mean±SD, n=3, Student's t-test). […] Viable cells were quantitated by CellTiter® blue (mean±SD, n=6, Student's t-test). […] Viable cells were quantitated (mean±SD, n=6, ANOVA). […]
# [2] = tested on: amyloid oligomers (AOs); test: Amyloid oligomer ELISA (A11) in murine cells (primary MEFs, NIH3T3); type: cell-based, mouse; settings: different concentrations of Bortezomib, 24 hrs
# Procedure: as §1, with “(H) HEK293T cells were transfected with LacZ or polyQ79 plasmid.” left out
# (§2) This figure is related to FIG. 5. […] (C) Quantitation of protein aggregate size. […]
# [3] = tested on: Aβ1-42 peptides; test: In vitro amyloid seeding of Aβ1-42 with lysates of treated A2058 cells (ThT binding, TEM); type: cell-based, human
# Procedure: as §1, with “(H) HEK293T cells were transfected with LacZ or polyQ79 plasmid.” left out
# as §2
# [4] = tested on: amyloid oligomers (AOs); test: Amyloid oligomer ELISA (A11) in human tumor, immortalized and primary cells; type: cell-based; settings: 20 nM AZD6244, 100 nM Bortezomib, or both, 24 hr
# Procedure: FIGS. 5A-Y show MEK and proteasome inhibition provoke protein aggregation and amyloidogenesis. (A-B) WM115 cells treated with 20 nM AZD6244, 100 nM Bortezomib, or both for 24 hr were stained with Lys48-specific ubiquitin antibodies. Arrowheads mark ubiquitin-positive aggregates. Scale bar: 10 μm. Amounts of aggregates per cell were quantitated using ImageJ (median, n≥100, ANOVA). (C-F) Following transfection with polyQ79 plasmids alone or with both polyQ79 and HSF1^S326D plasmids for one day, HEK293T cells were treated with inhibitors as described in (A-B). Cells were either analyzed for aggregate size or stained with 10 μM ThT. (G) Treated tumor cell lines were stained with 10 μM ThT. Geometric means were used to calculate fold changes in ThT fluorescence intensity and the log 2(FC) values were presented as a heat map. (H) HEK293T cells were transfected with LacZ or polyQ79 plasmid. Following treatments, AOs were quantitated by ELISA using A11 antibodies (mean±SD, n=3, ANOVA). (I) Intrinsic AOs were detected in human tumor cell lines (mean±SD, n=3, ANOVA). […] Amyloids were quantitated by ELISA (mean±SD, n=3, Student's t-test). […] AF formation was monitored by ThT binding (mean±SD, n=3, ANOVA). […] Amyloids were quantitated (mean±SD, n=3, Student's t-test). […] Viable cells were quantitated by CellTiter® blue (mean±SD, n=6, Student's t-test). […] Viable cells were quantitated (mean±SD, n=6, ANOVA). Relative changes in viable cells after treatment were calculated by normalizing the values of AZD6244-treated cells against the values of DMSO-treated cells at each time point. (U)-(W) Following treatments with 20 nM AZD6244, 100 nM Bortezomib, or both for 24 hr, AOs were quantitated in primary MEFs and human cells (mean±SD, n=3, ANOVA). (X and Y) Cells were treated with 50 μM Q-VD-OPh overnight and AOs were quantitated (mean±SD, n=3, Student's t-test). […]
# To quantitate soluble amyloid prefibrillar oligomers, 20 μg soluble cellular proteins diluted in PBS were incubated for each well in a 96-well ELISA plate at 4° C. overnight followed by blocking (5% non-fat milk in PBS-T) at RT for 1 hr. […]
compound,measurement,setting,value
"CC(C)C[C@H](NC(=O)[C@H](Cc1ccccc1)NC(=O)c1cnccn1)B(O)O [Bortezomib, bortezomib]",ubiquitin-containing aggregates (punctate foci),[1],bright fluorescent punctate foci emerged
same,endogenous amyloid oligomers in NIH3T3 cells,[2],capable of inducing amyloidogenesis
same,amyloid seeding efficacy of cell lysates,"[3]; 20 μM Aβ1-42, ThT binding",augmented
same,fibril morphology after seeding (transmission electron microscopy),"[3]; 37° C., 2 days",mature fibrils
same,AO levels in MCF10A cells,[4]; immortalized human mammary epithelial cells,slight induction
same,AO levels in PHMC,[4]; primary human mammary epithelial cells,no induction
same,AO levels in MCF7 cells,[4]; tumorigenic mammary epithelial cells,marked AO induction
